According to patent US20260308177A1, “THIAZOLOPYRIDIN-7(4H)-ONE WRN INHIBITORS” (NIMBUS WADJET, INC., priority 2023, published 2026):
Read-outs that look alike come from different tables or passages of the source.

Assays:
[1] = target: T1, human Werner helicase (WRN-BV08, amino acids 517-1235, L1074F) (Homo sapiens, UniProt Q14191, L1074F); assay: WRN (BV08) ADP-Glo Assay (ATPase inhibition); assay type: biochemical
T1 construct: TEV-cleavable 8×His tag (C, cleaved yes); made in house; host or cells: Sf9 insect cells (baculovirus)
From the text: Example 2: WRN (BV08) ADP-Glo Assay Protocol
Bovine skin gelatin (BSG), dimethyl sulfoxide (DMSO), Pluronic F-127 and tris(2-carboxyethyl)phosphine hydrochloride solution (TCEP) were purchased from Sigma-Aldrich (St. Louis, MO) at the highest level of purity possible. Bicine buffer solution was purchased from Alfa Aesar (Tewksbury, MA) and compound NSC-617145 was purchased from Tocris (Minneapolis, MN). DNA duplex was synthesized at BGI (Shenzhen, China) and was composed of strand 1 with the sequence 5′-[…]-3′ (SEQ ID NO.: 1) and strand 2 with the sequence 5′-[…]-3′ (SEQ ID NO.: 2). DNA strands were annealed by heating to 95° C. for 5 minutes followed by slow cooling to room temperature. Compounds in 100% DMSO (0.1 μl) were spotted into a 384-well white polystyrene Optiplate-384 (Perkin Elmer; Waltham, MA) assay plate using a LabCyte Echo 550 (Agilent; Santa Clara, CA). DMSO (0.1 μl) was added to columns 12, rows A-H and column 24, rows I-P for the maximum signal control. Compound NSC-617145 (0.1 μl) was added to columns 12, rows I-P and 24, rows A-H for the minimum signal control (100% inhibition). Compounds/DMSO were preincubated for 15 minutes at 25° C. with 5 μl 2×WRN (BV08), prepared as described below, in assay buffer containing 20 mM Bicine (pH=7.5), 1 mM MgCl2, 10 mM KCl, 0.1% Pluronic F-127, 0.005% BSG, 1 mM TCEP. The reaction was initiated by the addition of 5 μl 2× substrate mixture in assay buffer and incubated for 60 minutes at 25° C. The final concentrations of the assay components were 0.15 nM WRN, 5 μM ATP, and 0.1 nM DNA duplex. The final DMSO concentration was 1% and the reference compound concentration (NSC-617145) used for the minimal signal control was 20 μM. The reaction was stopped by the addition of the ADP-Glo Kit components (Promega; Madison, WI) as directed and the relative luminescence units (RLU) were read on an Envision 2104 (Perkin Elmer; Waltham, MA). % inhibition calculation:
Where RLU=relative luminescence units, sample=signal in sample well, and MIN and MAX are the respective minimum and maximum signal controls.
Four-parameter IC50 fit equation:
Where top and bottom are normally allowed to float but may be fixed at 100 or 0 respectively in a 3-parameter fit. Y is the % inhibition and X is the compound concentration.
Molecular Biology and virus production. The DNA encoding human Werner helicase (Uniprot Q14191, amino acids 517-1235 with L1074F point mutation) was generated with codon-optimization for E. coli expression and subcloned into the pFastBac vector with a TEV cleavable 8×His tag (WRN—BV08). The baculovirus from the expression plasmid WRN—BV08 was generated from transfection and amplification following the manufacturer's instructions.
Sf9 cells grown in SF900II media were infected with 1:200 WRN—BV08 P2 virus and incubated for protein expression for 72 h at 27° C. The WRN protein was purified using the following protocol. The cell pellets were thawed and resuspended in buffer A (50 mM Tris, pH 7.5, 500 mM NaCl, 1 mM TCEP, 10% Glycerol) supplemented with 0.5% CHAPS, 1 mM [COMPOUND LEFT OUT], 1 μg/ml Leupeptin, 1 μg/ml Pepstatin, and the Pierce Universal Nuclease and cocktail tablet. Cleared lysates were loaded onto a Ni Sepharose™ excel column and washed with buffer A and bound protein was eluted with buffer A supplemented with 300 mM imidazole. The eluted protein was dialyzed against buffer A and digested by His-tagged TEV (1:5 ratio) overnight at 4° C. ZnCl2 was added into the sample at final 15 μM before loading onto a second Ni Sepharose™ excel column. Untagged WRN protein was eluted from the column with buffer A supplemented with 20 mM imidazole, dialyzed overnight into buffer B (50 mM Tris, pH 7.5, 1 mM TCEP, 10% Glycerol) supplemented with 150 mM NaCl and loaded onto a Heparin column. Proteins were eluted with a step gradient of buffer B supplemented with 150 mM, 200 mM, 300 mM and 500 mM NaCl. […]

[2] = target: T2, p21 in HCT116 cells (Homo sapiens, UniProt Q14191); assay: p21 induction in HCT116 cells; assay type: cell-based; details: 24 h, p21/GAPDH signal ratio, % activation vs internal reference WRN inhibitor, read-out: P21_EC50
T2 construct: p21 induction in-cell western, 24 h
Description: (§1) Example 3: Method for Determining Effect on p21 Induction in Cells
(§2) The colon carcinoma cell line HCT116 was obtained from ATCC and cultured in growth medium consisting of Mccoy's 5A Medium (Gibco 16600108) supplemented with 10% FBS (Transgene FS201-02) and 100 units/mL penicillin-streptomycin (Gibco 15140122) and maintained at 37° C. under 5% CO2. On the day of seeding, 2,000 cells in 30 μL of culture media were plated per well to Poly-D-Lysine 384 Well Black Clear Plates (Biocoat 356663) and incubated overnight at 37° C. under 5% CO2. The following day, compounds were serially diluted in DMSO for a total of 11 test concentrations. The typical starting concentration of cpds was 10 uM with 2-fold dilutions. Next, 150 nL of diluted compound was added in duplicate to the assay plate, using an Echo 655 (Labcyte). The plate was centrifuged at 500 RPM for 1 min and then incubated at 37° C. under 5% CO2 for 24 h. After 24 h, medium was removed, and cells were fixed by adding 40 μL of 4% paraformaldehyde solution to each well and incubated for 20 min at room temperature. The plate was then washed 4 times with 100 μL per well of wash buffer (PBS with 0.1% Tween-20) using a microplate washer. Next, 30 μL of ice-cold methanol was added to each well and the plate was incubated at −20° C. for 10 min. The plate was washed 4 times with 100 µL per well of wash buffer by a microplate washer, then 30 μL per well of blocking buffer ((Intercept PBS blocking buffer (LI-COR 927-70001) with 0.05% Tween-20)) was added and the plate was incubated at room temperature with shaking for 2 h. Next, to each test well, 20 μL of primary antibody solution ((p21 Waf1/CIP (12D1) Rabbit mAb (Cell Signaling Technologies 2947) diluted 1:1000 and GAPDH (D4C6R) Mouse mAb (Cell Signaling Technologies 97166) diluted 1:2000 in blocking buffer)) was added and the plate was placed at 4° C., overnight. The following day, the plate was washed 5 times with 100 μL per well of wash buffer using a microplate washer for 5 min. 20 μL per well of secondary antibody ((IRDye 680CW Goat anti-Mouse IgG (H+L) (LI-COR 926-68070) diluted 1: 2000 in Blocking Buffer and IRDye 800CW Goat anti-Rabbit IgG (H+L) (LI-COR 926-32211) diluted 1: 2000 in Blocking Buffer)) was then added and the plate was stored for 2 h in the dark at room temperature with shaking. The plate was then washed 4 times with 100 μL per well of wash buffer again using a microplate washer. Finally, the p21 signal and the GAPDH signal were quantified using a LI-COR Odyssey CLx Imager machine reading at 800 nm and 700 nm, respectively. Each plate contained DMSO control (low control) and an internal reference WRN inhibitor (high control) respectively. For quantitation, the 800 nm/700 nm ratio was calculated for each well to give fold p21 induction and then percent activation for each compound well was calculated as follows ((100×(ratio cpd well-ratio low control)/(ratio high control−ratio low control)). EC50 values for each compound was generated after non-linear regression curve fitting using commercially available software.

[3] = p21 induction in HCT116 cells; assay type: cell-based, human; details: read-out: P21_EC50, 24 h, p21/GAPDH signal ratio, % activation vs internal reference WRN inhibitor
Description: as §1, §2

[4] = 0.15 nM WRN, 5 μM ATP, 0.1 nM DNA duplex, pH 7.5, 15 min preincubation, 60 min at 25° C., 1% DMSO, read-out: ADP-Glo_hWRN_IC50

T2 sequence (Q14191 whole entry): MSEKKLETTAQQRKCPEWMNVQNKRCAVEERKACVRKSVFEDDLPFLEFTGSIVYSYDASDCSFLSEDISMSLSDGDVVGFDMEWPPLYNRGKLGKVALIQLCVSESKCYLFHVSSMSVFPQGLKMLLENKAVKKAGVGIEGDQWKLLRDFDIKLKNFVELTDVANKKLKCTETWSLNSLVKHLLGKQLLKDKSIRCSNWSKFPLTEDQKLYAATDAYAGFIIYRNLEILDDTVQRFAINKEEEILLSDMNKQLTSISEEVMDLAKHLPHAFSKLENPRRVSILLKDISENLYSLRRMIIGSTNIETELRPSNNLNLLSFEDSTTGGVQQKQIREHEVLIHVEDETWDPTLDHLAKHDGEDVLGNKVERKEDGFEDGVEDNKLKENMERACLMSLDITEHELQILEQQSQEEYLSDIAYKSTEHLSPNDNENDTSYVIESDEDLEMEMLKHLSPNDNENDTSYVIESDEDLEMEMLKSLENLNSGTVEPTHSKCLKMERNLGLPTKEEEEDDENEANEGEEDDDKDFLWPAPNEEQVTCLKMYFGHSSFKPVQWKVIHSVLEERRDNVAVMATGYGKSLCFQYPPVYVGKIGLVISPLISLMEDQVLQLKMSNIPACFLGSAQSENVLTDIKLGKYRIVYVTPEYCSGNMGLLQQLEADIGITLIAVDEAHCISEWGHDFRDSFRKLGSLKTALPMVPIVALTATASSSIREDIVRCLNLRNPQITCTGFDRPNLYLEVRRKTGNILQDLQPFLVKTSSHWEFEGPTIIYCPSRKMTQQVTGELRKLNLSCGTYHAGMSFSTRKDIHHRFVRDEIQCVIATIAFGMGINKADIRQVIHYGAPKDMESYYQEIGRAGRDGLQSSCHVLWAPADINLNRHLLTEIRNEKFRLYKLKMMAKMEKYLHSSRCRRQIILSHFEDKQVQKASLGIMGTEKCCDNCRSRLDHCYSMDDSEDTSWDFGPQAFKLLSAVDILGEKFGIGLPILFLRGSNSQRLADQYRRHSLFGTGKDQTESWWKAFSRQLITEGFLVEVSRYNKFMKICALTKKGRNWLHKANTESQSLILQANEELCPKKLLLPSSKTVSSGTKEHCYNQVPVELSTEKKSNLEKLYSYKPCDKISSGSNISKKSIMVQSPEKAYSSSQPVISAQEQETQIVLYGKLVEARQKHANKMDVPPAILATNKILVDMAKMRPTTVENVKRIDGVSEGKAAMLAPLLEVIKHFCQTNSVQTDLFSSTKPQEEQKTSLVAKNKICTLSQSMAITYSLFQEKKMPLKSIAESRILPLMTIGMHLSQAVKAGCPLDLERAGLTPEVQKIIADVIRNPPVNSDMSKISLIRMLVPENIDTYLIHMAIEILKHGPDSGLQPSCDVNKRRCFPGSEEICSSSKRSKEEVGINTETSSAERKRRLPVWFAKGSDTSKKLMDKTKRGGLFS
T1 sequence (Q14191 with tags, fused parts or gaps L1074F): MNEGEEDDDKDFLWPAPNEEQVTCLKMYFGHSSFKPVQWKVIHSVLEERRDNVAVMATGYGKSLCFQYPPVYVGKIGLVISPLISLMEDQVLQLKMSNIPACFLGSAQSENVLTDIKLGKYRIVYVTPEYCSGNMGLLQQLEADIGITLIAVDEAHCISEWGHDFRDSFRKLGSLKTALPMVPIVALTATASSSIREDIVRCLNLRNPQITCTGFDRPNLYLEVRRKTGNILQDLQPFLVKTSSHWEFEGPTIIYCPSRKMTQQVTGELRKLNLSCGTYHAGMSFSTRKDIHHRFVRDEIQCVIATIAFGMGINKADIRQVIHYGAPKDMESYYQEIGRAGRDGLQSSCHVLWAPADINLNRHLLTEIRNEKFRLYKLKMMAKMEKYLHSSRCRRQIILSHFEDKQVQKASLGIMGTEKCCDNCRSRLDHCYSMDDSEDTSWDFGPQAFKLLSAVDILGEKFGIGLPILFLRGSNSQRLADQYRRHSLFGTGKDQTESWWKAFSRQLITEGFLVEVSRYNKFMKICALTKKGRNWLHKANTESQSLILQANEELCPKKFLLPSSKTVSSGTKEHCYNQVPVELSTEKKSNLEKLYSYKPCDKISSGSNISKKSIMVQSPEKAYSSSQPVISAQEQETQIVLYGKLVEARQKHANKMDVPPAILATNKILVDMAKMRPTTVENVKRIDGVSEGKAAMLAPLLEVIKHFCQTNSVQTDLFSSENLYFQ

| SMILES | IC50 [1, 4] | EC50 [2] | EC50 [3] | IC50 [1] |
| --- | --- | --- | --- | --- |
| CCc1c(N2CCN(C(=O)c3ncnc(C)c3O)CC2)c(=O)c2nc(-c3cnn(C)c3)sc2n1CC(=O)Nc1ccc(C(F)(F)F)cc1Cl [1-7] | 5 to 50 nM | – | – | – |
| CCc1c(N2CCN(C(=O)c3ncnc(C)c3O)CC2)c(=O)c2nc(-c3ccnc(OC)c3)sc2n1CC(=O)Nc1ccc(C(F)(F)F)cc1Cl [Compound I-1, N-(2-chloro-4-(trifluoromethyl)phenyl)-2-(5-ethyl-6-(4-(5-hydroxy-6-methylpyrimidine-4-carbonyl)piperazin-1-yl)-2-(2-methoxypyridin-4-yl)-7-oxothiazolo[5,4-b]pyridin-4(7H)-yl)acetamide] | 5 to 50 nM | 500 to 2000 nM | – | – |
| CCc1c(N2CCN(C(=O)c3ncnc(C)c3O)CC2)c(=O)c2nc(C3=CCOCC3)sc2n1CC(=O)Nc1ccc(C(F)(F)F)cc1Cl [1-3] | – | 2000 to 5000 nM | – | – |
| CCc1c(N2CCN(C(=O)c3ncnc(C)c3O)CC2)c(=O)c2sc(-c3ccnc(OC)c3)nc2n1CC(=O)Nc1ccc(C(F)(F)F)cc1Cl [Compound I-2, N-(2-chloro-4-(trifluoromethyl)phenyl)-2-(5-ethyl-6-(4-(5-hydroxy-6-methylpyrimidine-4-carbonyl)piperazin-1-yl)-2-(2-methoxypyridin-4-y1)-7-oxothiazolo[4,5-b]pyridin-4(7H)-yl)acetamide] | < 5 nM | < 500 nM | – | – |
| CCc1c(N2CCN(C(=O)c3ncnc(C)c3O)CC2)c(=O)c2nc(C3=CCOCC3)sc2n1CC(=O)Nc1ccc(C(F)(F)F)cc1Cl [Compound I-3, N-(2-chloro-4-(trifluoromethyl)phenyl)-2-(2-(3,6-dihydro-2H-pyran-4-y1)-5-ethyl-6-(4-(5-hydroxy-6-methylpyrimidine-4-carbonyl)piperazin-1-yl)-7-oxothiazolo[5,4-b]pyridin-4(7H)-yl)acetamide] | 5 to 50 nM | – | – | – |
| CCc1c(N2CCN(C(=O)c3ncnc(C)c3O)CC2)c(=O)c2nc(N3CCCC3)sc2n1CC(=O)Nc1ccc(C(F)(F)F)cc1Cl [Compound I-4, N-(2-chloro-4-(trifluoromethyl)phenyl)-2-(5-ethyl-6-(4-(5-hydroxy-6-methylpyrimidine-4-carbonyl)piperazin-1-yl)-7-oxo-2-(pyrrolidin-1-yl)thiazolo[5,4-b]pyridin-4(7H)-yl)acetamide] | 5 to 50 nM | 2000 to 5000 nM | – | – |

The remaining lines, values ahead:

| IC50 [1, 4] | EC50 [2] | EC50 [3] | IC50 [1] | SMILES |
| --- | --- | --- | --- | --- |
| – | > 5000 nM | – | – | CCc1c(N2CCN(C(=O)c3ncnc(C)c3O)CC2)c(=O)c2nc(-c3cnn(C)c3)sc2n1CC(=O)Nc1ccc(C(F)(F)F)cc1Cl [Compound I-7, N-(2-chloro-4-(trifluoromethyl)phenyl)-2-(5-ethyl-6-(4-(5-hydroxy-6-methylpyrimidine-4-carbonyl)piperazin-1-y1)-2-(1-methyl-1H-pyrazol-4-y1)-7-oxothiazolo[5,4-b]pyridin-4(7H)-yl)acetamide] |
| – | – | 500 to 2000 nM | 5 to 50 nM | C=C(C)c1nc2c(=O)c(N3CCN(C(=O)c4ncnc(C)c4O)CC3)c(CC)n(CC(=O)Nc3ccc(C(F)(F)F)cc3Cl)c2s1 [Compound I-6, N-(2-chloro-4-(trifluoromethyl)phenyl)-2-(5-ethyl-6-(4-(5-hydroxy-6-methylpyrimidine-4-carbonyl)piperazin-1-yl)-7-oxo-2-(prop-1-en-2-yl)thiazolo[5,4-b]pyridin-4(7H)-yl)acetamide] |
| 5 to 50 nM | 500 to 2000 nM | – | – | CCc1c(N2CCN(C(=O)c3c(O)ccnc3OC)CC2)c(=O)c2nc(-c3ccnc(OC)c3)sc2n1CC(=O)Nc1ccc(C(F)(F)F)cc1Cl [Compound I-5, N-(2-chloro-4-(trifluoromethyl)phenyl)-2-(5-ethyl-6-(4-(4-hydroxy-2-methoxynicotinoyl)piperazin-1-y1)-2-(2-methoxypyridin-4-y1)-7-oxothiazolo[5,4-b]pyridin-4(7H)-y1)acetamide] |
| 5 to 50 nM | > 5000 nM | – | – | CCc1c(N2CCN(C(=O)c3ncnc(C)c3O)CC2)c(=O)c2sc(-c3ccnc(OC)c3)nc2n1CC(=O)NC12CC(C(F)(F)F)(C1)C2 [Compound I-8, 2-(5-ethyl-6-(4-(5-hydroxy-6-methylpyrimidine-4-carbonyl)piperazin-1-yl)-2-(2-methoxypyridin-4-y1)-7-oxothiazolo[4,5-b]pyridin-4(7H)-y1)-N-(3-(trifluoromethyl)bicyclo[1.1.1]pentan-1-yl)acetamide] |
